Measured values taken from US9249086B2, “Carboxylic acid ALA esters” (Photocure ASA, priority 2012, dated 2016).
Where a name gives a salt, the structure may show the parent alone. Read-outs that look alike come from different tables or passages of the source. Marks after values point to notes of the source that are not given here.

Experiments:
[1] = test system: WiDr cells; settings: MTS assay; for Dark toxicity (cell toxicity in the absence of light): 0.001-1 mM, 4 hours incubation in the dark
Protocol: Stock solutions of the compounds above were prepared by dissolving them in DMSO to a concentration of 100 mM. Concentrations used in the experiments were obtained by diluting the stock solutions with PBS or cell culture medium.
WiDr cells derived from a primary adenocarcinoma of the rectosigmoid colon were subcultured in RPMI 1640 medium (Gibco) containing 10% fetal calf serum, 100 U/ml penicillin, 100 μg/ml streptomycin and 1% glutamine. Cells were split 1:100 twice a week, and maintained at 37° C. and 5% CO2 in a humid environment. For carrying out the experiments, 5×10^5 WiDr cells in 2 ml of the medium described above were added to each well of 6-well plastic tissue-culture plates (Nunc) and left for 48 hr at 37° C. and 5% CO2 in a humid environment for proper attachment to the substrate. The cells were then washed twice with RPMI 1640-medium without serum, followed by the addition to the wells of the appropriate dilutions of the compounds and references above in 2 ml of fresh culture medium to final concentrations of 0.001, 0.003, 0.01, 0.03, 0.1, 0.3 and 1 mM in duplicates. To two wells, only 2 ml of fresh culture medium was added. These untreated cells served as a control. The cells were incubated at 37° C. for four hours in the dark.
Dark toxicity, i.e. cell toxicity in the absence of light, was measured by MTS assay immediately after the above-described 4 hours of incubation with the compounds and references at various concentrations.

[2] = test system: WiDr cells; assay: In vitro PpIX formation in cancer cells; type: cell-based
Protocol: These untreated cells served as a control.
After treatment with the compounds of the invention and reference compounds as described above, the cells were washed twice with PBS and scraped off the substrate with a Costar cell scraper into a solution of 1M HClO4 in 50% methanol. Cell debris was removed by centrifugation. PpIX was quantitatively extracted from the cells with this procedure. The PpIX content in each sample was determined fluorometrically using a Perkin Elmer LS50B spectrofluorimeter. PpIX was excited at 407 nm, and the emitted fluorescence was measured at 606 nm using a long pass cut-off filter (530 nm) on the emission side. A standard of known PpIX concentration was added to the samples at concentrations increasing the total fluorescence by 50-100%. The PpIX concentration in each sample was calculated relative to the protein content in control cells as measured by a bicinchoninic acid protein assay.

[3] = test system: skin of healthy nude mice; assay: In vivo skin fluorescence study in healthy nude mice; settings: cream in Unguentum Merck, equimolar (16-19%), about 100 μl on back, 6 hours in the dark, excitation 365 and 405 nm, mean of 5 mice
Protocol: A study was carried out to assess the potential of the compounds of the invention as precursors for photosensitisers for skin application. As such, the compounds of the invention need to be able to penetrate the skin, to be taken up by the cells in the skin and to be converted to photosensitisers. The result of this process can be visualized by exposing the skin to light which excites the photosensitiser molecules and to determine the amount of energy which is released in the form of fluorescence when the excited photosensitiser molecules relax to an energetically lower state.
Compounds 2, 4 and 7 above were formulated as creams in Unguentum Merck. The compounds were tested in equimolar amounts:
3 groups of mice (5 mice/group, each mouse of one group receiving the same cream formulation) were included in the experiment. About 100 μl of cream formulation was applied onto the back of one mouse. The mice were kept in the dark for 6 hours prior to skin fluorescence measurement to avoid photobleaching. For assessment of skin fluorescence, a fluorescence camera (Medeikonos PDD/PDT, Medeikonos AB, Gothenburg, Sweden) was used and images of the back of each mouse were taken. Excitation was carried out at wavelengths of 365 and 405 nm and 2 s illumination time. Each image was calibrated to a fluorescence standard (Uranyl Standard, J&M, Analytische Mess- and Regeltechnik GmbH, Hamburg, Germany) and adjusted for background fluorescence. The mean amount of skin fluorescence in each image was calculated by means of image analyzer-software (MatLab 7.2.0.232, Math-Works, Natick, Mass., USA) and the mean amount of skin fluorescence for each group of mice (5 mice/compound) was calculated.

[4] = test system: UV-damaged mouse skin versus healthy mouse skin; assay: In vivo skin fluorescence in healthy nude mice and nude mice with UV-damaged skin; settings: nude mice; for Ratio of skin fluorescence in UV-damaged mouse skin to skin fluorescence in healthy mouse skin: equimolar creams (16% / 14%), about 125 μl, tape-stripped skin, 3 hours in the dark, 10 mice per group; for Selectivity for UV-damaged skin: equimolar creams, 3 hours
Protocol: An experiment was carried out to assess the potential for compound 6 to show selective accumulation in UV-damaged skin. For the assessment, skin fluorescence after application of the compound was measured in vivo in healthy mouse skin and in UV-damaged mouse skin. A nude mice model with UV-damaged skin (actinic damage) was established as described by K. Togsverd-Bo et al., Exp. Dermatol. 2012, 21, 260-264.
Equimolar amounts of compound 2 (1-(isopropyl carboxy)ethyl 5-amino-4-oxopentanoate hydrochloride prepared according to Example 2) and compound 5 (3-carboxypropyl 5 amino-4-oxopentanoate hydrochloride prepared according to Example 5) were formulated as a cream in Unguentum Merck: compound 2: 16%, 160 mg/g and compound 5: 14%, 140 mg/g, respectively.
One group of healthy nude mice (10 mice, control group) and one group of nude mice with UV-damaged skin (10 mice) were included in the experiment. About 125 μl of cream formulation was applied onto the back of each mouse. Prior to cream application, the dorsal skin of each mouse was tape-stripped five times to enhance penetration of the compound: adhesive film (Scotch tape, 3M) was pressed onto the skin of the application area, the tape strip was removed with one quick movement and a new tape strip was used. The mice were kept in the dark for 3 hours prior to skin fluorescence measurement to avoid photobleaching. Skin fluorescence was assessed as described in Example 17 and the mean amount of skin fluorescence for each group of mice was calculated.
The ratio of skin fluorescence [a.u] in UV-damaged mouse skin to skin fluorescence [a.u.] in healthy mouse skin was determined.

[5] = test system: Rat bladder cells (AY-27); assay: PpIX measurements in rat bladder cells; type: cell-based; settings: AY-27 cells, 2 hours incubation
Protocol: Rat bladder cells (AY-27) were grown in the culture medium (RPMI 1640 supplemented with 9% fetal calf serum 1% L-glutamin (200 mM) and 1% penicillin (10 000 UI), streptomycin (10 000 μg·mL^−1). Exponentially growing cells (AY-27) were incubated for 2 hours with freshly prepared solutions of 0.8 mM HAL (which is a tenth of the concentration which is used for bladder cancer […]). Control cells received serum-free medium without any test or reference compounds. After the incubation, the solutions or the medium was discarded and the cells were rinsed 2 times with ice-cooled PBS. PpIX was extracted from cells using an ice-cold lysis extraction mixture, consisting of ethanol/DMSO/acetic acid (80/20/1, v/v/v). The cell lysate was centrifuged (400 g, 10 min, 2° C.), the pellet was grinded and the suspension was sonicated for 15 min before being centrifuged. The fluorescence signal of PpIX was measured with a Perkin-Elmer LS 55 spectrometer (Perkin-Elmer, Beaconsfield, UK) and expressed as a function of the protein content. The fluorescence intensity at 635 nm in each sample was reported on a calibration curve established with PpIX (Sigma-Aldrich, France) diluted in extraction mixture as described above. The PpIX concentration was expressed relative to the protein content. Briefly, a lysis buffer mixture (1 mM EDTA, 1% Triton X-100 and 10 mM Tris-HCl; pH 7.4) was added to frozen cell dishes together with 500 mM PMSF (anti-protease) solution in DMSO. Lysates were kept on ice for 30 minutes and centrifuged at 4° C. for 20 minutes at 15 000 g. The protein content was then measured against a BSA calibration curve by a Biorad DC protein assay kit (Bio-Rad, France) based on a method developed by Lowry.

[6] = test system: Rat bladder cells (AY-27); assay: Cytotoxicity in rat bladder cells (MTT test); type: cell-based; settings: AY-27 cells; for Cytotoxicity: 2 hours, MTT test; for Levels of cytotoxicity compared to HAL: compound at 1 mM
Protocol: All experiments were performed in 4-5 replicates under subdued light. For concentrations of compounds 1 mM, the cytotoxicity was assessed with MTT test. Exponentially growing cells were incubated with freshly prepared solution or medium as described above for 2 hours in 96-well plates. After the incubation, the solutions or the medium was discarded and the cells were washed twice with PBS. Then 50 μl of MTT (2.5 mg·ml^−1) was added to 150 μl of RPMI serum-free medium per well and incubated for 3 hours. Absorbance was measured by dissolving formazan crystals with 50 μl of DMSO. The absorbance was normalized to that of control cells.

[7] = WiDr cells, 0.001-1 mM, 4 hours incubation, * mean of two, ** mean of 3 experiments

Cl.NCC(=O)CCC(=O)O [ALA, 5-ALA hydrochloride, reference compound]
Dark toxicity (cell toxicity in the absence of light) [1]: no cell toxicity was observed
Max. PpIX content [2, 7]: 80* ng/mg protein
Compound concentration for max PpIX formation ([2]; WiDr cells, 4 hours incubation): ≧1 mM

CC(C)OC(=O)C(C)OC(=O)CCC(=O)CN (centres unmarked) [Compound 2, 1-(isopropylcarboxy)ethyl 5-amino-4-oxopentanoate hydrochloride]
Skin fluorescence [3]: 31557 a.u.
Ratio of skin fluorescence in UV-damaged mouse skin to skin fluorescence in healthy mouse skin [4]: 1.14
Selectivity for UV-damaged skin [4]: some selectivity for UV-damaged skin

NCC(=O)CCC(=O)OCCCC(=O)O [Compound 5, 3-carboxypropyl 5-amino-4-oxopentanoate hydrochloride]
Ratio of skin fluorescence in UV-damaged mouse skin to skin fluorescence in healthy mouse skin [4]: 2.72
Selectivity for UV-damaged skin [4]: pronounced selectivity for UV-damaged skin
Dark toxicity (cell toxicity in the absence of light) [1]: no cell toxicity was observed
Max. PpIX content [2, 7]: 30 ng/mg protein
Compound concentration for max PpIX formation ([2]; WiDr cells, 4 hours incubation): 1 mM
PpIX Mean ± SD ([5]; 0.3 mM): 221 ± 32 pmoles/mg protein
PpIX Mean ± SD ([5]; 0.5 mM): 224 ± 35 pmoles/mg protein
PpIX Mean ± SD ([5]; 1 mM): 261 ± 52 pmoles/mg protein
PpIX Mean ± SD ([5]; 5 mM): 250 ± 83 pmoles/mg protein
PpIX Mean ± SD ([5]; 15 mM): 216 ± 11 pmoles/mg protein
Cytotoxicity ([6]; 1 mM): 17 % of control
Cytotoxicity ([6]; 5 mM): 30 % of control
Cytotoxicity ([6]; 15 mM): 37 % of control
Levels of cytotoxicity compared to HAL [6]: comparable and acceptable

NCC(=O)CCC(=O)OCc1ccc(C(=O)O)cc1 [Compound 7, (4-carboxyphenyl)methyl 5-amino-4-oxopentanoate hydrobromide]
Skin fluorescence [3]: 2995 a.u.

NCC(=O)CCC(=O)OCCCCC(=O)O [Compound 8, 4-carboxybutyl 5-amino-4-oxopentanoate hydrochloride]
PpIX Mean ± SD ([5]; 0.3 mM): 243 ± 28 pmoles/mg protein
PpIX Mean ± SD ([5]; 0.5 mM): 219 ± 51 pmoles/mg protein
PpIX Mean ± SD ([5]; 1 mM): 258 ± 62 pmoles/mg protein
PpIX Mean ± SD ([5]; 5 mM): 234 ± 78 pmoles/mg protein
PpIX Mean ± SD ([5]; 15 mM): 213 ± 64 pmoles/mg protein
Cytotoxicity ([6]; 1 mM): 18 % of control
Cytotoxicity ([6]; 5 mM): 26 % of control
Cytotoxicity ([6]; 15 mM): 38 % of control
Levels of cytotoxicity compared to HAL [6]: comparable and acceptable

NCC(=O)CCC(=O)OCCCCCC(=O)O [Compound 9, 5-carboxypentyl 5-amino-4-oxopentanoate hydrochloride]
Dark toxicity (cell toxicity in the absence of light) [1]: no cell toxicity was observed
Compound concentration for max PpIX formation [2]: 1 mM
Max. PpIX content [2]: 40 ng/mg protein

NCC(=O)CCC(=O)OCCCCCCCC(=O)O [Compound 10, 7-carboxyheptyl 5-amino-4-oxopentanoate hydrochloride]
Dark toxicity (cell toxicity in the absence of light) [1]: no cell toxicity was observed
Compound concentration for max PpIX formation [2]: 1 mM
Max. PpIX content [2]: 55* ng/mg protein

NCC(=O)CCC(=O)OCCCCCCCCCC(=O)O [Compound 12, 9-carboxynonyl 5-amino-4-oxopentanoate hydrochloride]
Dark toxicity (cell toxicity in the absence of light) [1]: no cell toxicity was observed
Max. PpIX content [2, 7]: 90* ng/mg protein
Compound concentration for max PpIX formation ([2]; WiDr cells, 4 hours incubation): 0.05 mM

NCC(=O)CCC(=O)OCCCCCCCCCCCC(=O)O [Compound 14, 11-carboxyundecyl 5-amino-4-oxopentanoate hydrochloride]
Dark toxicity (cell toxicity in the absence of light) [1]: no cell toxicity was observed
Compound concentration for max PpIX formation [2]: 0.1 mM
Max. PpIX content [2]: 65* ng/mg protein

Cl.NCC(=O)CCC(=O)OCCCCCCCCCCCCCCCC(=O)O [Compound 15, 15-carboxypentadecyl 5-amino-4-oxopentanoate hydrochloride]
Concentrations at which compound was toxic (dark toxicity) ([1]; 4 hours in the dark): above 0.1 mM
Compound concentration for max PpIX formation [2]: 0.1 mM
Max. PpIX content [2, 7]: 25 ng/mg protein

CCCCCCOC(=O)CCC(=O)CN.Cl [HAL, 5-ALA hexyl ester hydrochloride, reference compound]
Dark toxicity (cell toxicity in the absence of light) [1]: weak cell toxicity
Minimum cell survival rate ([1]; range of 0.3 to 1 mM, 4 hours in the dark): 85%
Max. PpIX content [2, 7]: 94** ng/mg protein
Compound concentration for max PpIX formation ([2]; WiDr cells, 4 hours incubation): 0.1 mM
Cytotoxicity ([6]; 0.8 mM): 15 % of control
